For assay [1], the target named is PTPN11-E76K mutant enzyme (Homo sapiens (Human), UniProt Q06124, E76K). Put plainly: PTPN11 Enzymatic Assay (DiFMUP phosphatase activity). The assay is classed as biochemical. Conditions: DiFMUP 50 μM, 30 min preincubation. The procedure:
Reaction was initiated by addition of DiFMUP (50 μM) at room temperature in 384-well black plate with a final reaction volume of 20 uL in assay buffer. […] Dose-response curves were analyzed using IC50 regression curve fitting (GeneData Screener). Curves were normalized to a high controls without inhibitor, and low controls without enzyme.

Assay [2] has as its system Phospho-ERK levels in KYSE-520 cells. Put plainly: pERK AlphaScreen Protocol. Conditions: KYSE-520 cells, 2 hr compound incubation, phospho-ERK1/2 AlphaScreen SureFire, read-out: PERK Avg IC50. The assay is classed as cell-based. On the procedure:
KYSE-520 cells (10 k cells/well) were grown in 384-well plate in 20 uL of medium (RPMI-1640, without phenol red, containing 10% FBS) at 37° C. with 5% CO2 overnight. DMSO (control) or increasing concentrations of compounds were diluted in medium, added to the 384-well plate (5 uL/well, final DMSO concentration of 1%), and cells were then incubated with compounds for 2 hr. Phospho-ERK levels were measured using phospho-ERK1/2 AlphaScreen SureFire (PerkinElmer, TGRESB10K) following manufacturer's recommendations. Dose-response curves were analyzed using IC50 regression curve fitting (GeneData Screener). Curves were normalized to a high control without inhibitor (DMSO only), and low control (1 μM selumetinib).
Background: Alpha assays give light when donor and acceptor beads are brought close together.

[3] abbreviates: PTPN11-E76K Avg IC50, full length PTPN11-E76K mutant enzyme 250 pM.
Where [4] appears, read: full length PTPN11-E76K mutant enzyme 250 pM, read-out: PTPN11-E76K Avg IC50.

pIC50: −log10 of the molar value. Like-named read-outs stand apart in the source and are kept apart here.

Chain of PTPN11-E76K mutant enzyme (Q06124 whole entry E76K): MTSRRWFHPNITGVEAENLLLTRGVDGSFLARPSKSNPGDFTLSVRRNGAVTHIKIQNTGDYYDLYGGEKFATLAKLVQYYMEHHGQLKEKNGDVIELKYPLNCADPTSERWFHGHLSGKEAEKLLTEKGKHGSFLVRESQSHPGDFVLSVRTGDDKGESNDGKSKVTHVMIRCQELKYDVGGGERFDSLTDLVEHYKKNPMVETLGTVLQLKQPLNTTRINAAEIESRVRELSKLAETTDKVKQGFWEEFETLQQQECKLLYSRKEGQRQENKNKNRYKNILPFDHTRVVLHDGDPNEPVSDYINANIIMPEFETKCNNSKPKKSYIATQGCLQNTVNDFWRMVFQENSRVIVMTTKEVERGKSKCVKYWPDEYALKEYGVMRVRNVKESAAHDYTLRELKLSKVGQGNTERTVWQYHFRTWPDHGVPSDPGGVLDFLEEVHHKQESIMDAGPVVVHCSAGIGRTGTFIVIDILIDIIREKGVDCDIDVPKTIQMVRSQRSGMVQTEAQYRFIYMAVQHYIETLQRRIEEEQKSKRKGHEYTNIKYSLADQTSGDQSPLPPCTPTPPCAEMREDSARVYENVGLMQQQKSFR

For orientation: pIC50 means the IC50 on a negative log10 scale, so that one unit is a factor of ten. Regarding `NC1C(F)CCC12CCN(c1cnc3c(-c4cccc(Cl)c4Cl)n[nH]c3n1)CC2` (single isomer, unassigned) [Example 64B, 8-(3-(2,3-Dichlorophenyl)-1H-pyrazolo[3,4-b]pyrazin-6-yl)-2-fluoro-8-azaspiro[4.5]decan-1-amine], the pIC50 is 6.66 in assay [1] (setting [3]) and 7.15 in assay [2].

As for `NC1C(F)(F)CCC12CCN(c1cnc3c(-c4cccc(Cl)c4Cl)n[nH]c3n1)CC2` (single isomer, unassigned) [Example 65B, 8-(3-(2,3-Dichlorophenyl)-1H-pyrazolo[3,4-b]pyrazin-6-yl)-2,2-difluoro-8-azaspiro[4.5]decan-1-amine], the pIC50 is 6.33 in assay [1] (setting [3]) and 6.78 in assay [2].

`CC(N)C1(C)CCN(c2cnc3c(-c4ccnc(N)c4Cl)n[nH]c3n2)CC1` (single isomer, unassigned) [Example 113a, 4-(6-(4-(1-Aminoethyl)-4-methylpiperidin-1-yl)-1H-pyrazolo[3,4-b]pyrazin-3-yl)-3-chloropyridin-2-amine]: the pIC50 in assay [1] (setting [4]) is 6.74; in assay [2] (Homo sapiens, KYSE-520, 2 h), 7.00.

`Nc1nccc(-c2n[nH]c3nc(N4CCC5(CCC5N)CC4)cnc23)c1Cl` (single isomer, unassigned; enantiomer 1) [Example 136a, 7-[3-(2-amino-3-chloropyridine-4-yl)-1H-pyrazolo[3,4-b]-pyrazin-6-yl]-7-aza-spiro[3.5]nonan-1-amine, enantiomer 1]: the pIC50 in assay [2] (Homo sapiens, KYSE-520, 2 h) is 5.64.

As for `Nc1nccc(-c2n[nH]c3nc(N4CCC5(CCC5N)CC4)cnc23)c1Cl` (single isomer, unassigned; enantiomer 2) [Example 136b, 7-[3-(2-amino-3-chloropyridin-4-yl)-1H-pyrazolo-[3,4-b]-pyrazin-6-yl]-7-aza-spiro[3.5]nonan-1-amine, enantiomer 2], in assay [2], the pIC50 is 5.71.

Consider `NC1C(F)CCC12CCN(c1cnc3c(-c4cccc(Cl)c4Cl)n[nH]c3n1)CC2` (single isomer, unassigned; isomer a) [Example 64A, 8-(3-(2,3-Dichlorophenyl)-1H-pyrazolo[3,4-b]pyrazin-6-yl)-2-fluoro-8-azaspiro[4.5]decan-1-amine, isomer A], for which the pIC50 is 7.01 in assay [1] (setting [3]) and 7.47 in assay [2].

For the compound `NC1C(F)(F)CCC12CCN(c1cnc3c(-c4cccc(Cl)c4Cl)n[nH]c3n1)CC2` (single isomer, unassigned; isomer a) [Example 65A, 8-(3-(2,3-Dichlorophenyl)-1H-pyrazolo[3,4-b]pyrazin-6-yl)-2,2-difluoro-8-azaspiro[4.5]decan-1-amine, isomer A], the pIC50 in assay [1] (setting [3]) was 6.63; in assay [2] (Homo sapiens, KYSE-520, 2 h) it was 7.03.

`Clc1cccc(-c2n[nH]c3nc(N4CCC5(CCN5)CC4)cnc23)c1Cl` [Example 7, 3-(2,3-dichloro-phenyl)-6-(1,7-diaza-spiro[3.5]nonan-7-yl)-1H-pyrazolo[3,4-b]pyrazine]: the pIC50 in assay [1] (setting [4]) is 6.71; in assay [2] (Homo sapiens, KYSE-520, 2 h) it was 7.10.

Consider `NCC1(O)CCN(c2cnc3c(-c4cccc(Cl)c4Cl)n[nH]c3n2)CC1` [Example 8, 4-(aminomethyl)-1-(3-(2,3-dichloro-phenyl)-1H-pyrazolo[3,4-b]-pyrazin-6-yl)-piperidin-4-ol], for which the pIC50 is 6.69 in assay [1] (setting [4]) and 7.07 in assay [2] (Homo sapiens, KYSE-520, 2 h).

On to `CC1(CN)CCN(c2cnc3c(-c4cccc(Cl)c4)n[nH]c3n2)CC1` [Example 9, (1-(3-(3-chloro-phenyl)-1H-pyrazolo[3,4-b]-pyrazin-6-yl)-4-methylpiperidin-4-yl)methanamine], for which the pIC50 in assay [1] (setting [4]) is 6.44; in assay [2] (Homo sapiens, KYSE-520, 2 h), 6.32.

Take `CC1(N)CCN(c2cnc3c(-c4cccc(Cl)c4)n[nH]c3n2)CC1` [Example 10, 1-(3-(3-chloro-phenyl)-1H-pyrazolo[3,4-b]-pyrazin-6-yl)-4-methylpiperidin-4-amine]: the pIC50 is 6.48 in assay [1] (setting [4]) and 6.76 in assay [2] (Homo sapiens, KYSE-520, 2 h).

As to `CC1(N)CCN(c2cnc3c(-c4cccc(Cl)c4F)n[nH]c3n2)CC1` [Example 26, 1-(3-(3-chloro-2-fluorophenyl)-1H-pyrazolo[3,4-b]-pyrazin-6-yl)-4-methylpiperidin-4-amine], in assay [1] (setting [4]), the pIC50 was 6.67.

`CC1(N)CCN(c2cnc3c(-c4c(F)cccc4Cl)n[nH]c3n2)CC1` [Example 32, 1-(3-(2-chloro-6-fluorophenyl)-1H-pyrazolo[3,4-b]-pyrazin-6-yl)-4-methylpiperidin-4-amine]: the pIC50 in assay [2] (Homo sapiens, KYSE-520, 2 h) was 6.55.

For the compound `COc1cc(-c2n[nH]c3nc(N4CCC5(CCC[C@H]5N)CC4)cnc23)ccc1Cl` [Example 34, (R)-8-(3-(4-chloro-3-methoxyphenyl)-1H-pyrazolo[3,4-b]-pyrazin-6-yl)-8-aza-spiro[4.5]decan-1-amine], the pIC50 in assay [1] (setting [4]) was 6.99.

As to `N[C@@H]1COCC12CCN(c1cnc3c(-c4cccc(Cl)c4Cl)n[nH]c3n1)CC2` [Example 38, (S)-8-(3-(2,3-Dichlorophenyl)-1H-pyrazolo[3,4-b]pyrazin-6-yl)-2-oxa-8-azaspiro[4.5]-decan-4-amine], the pIC50 in assay [2] (Homo sapiens, KYSE-520, 2 h) was 7.40.

On to `N[C@@H]1COCC12CCN(c1cnc3c(-c4cccc(F)c4Cl)n[nH]c3n1)CC2` [Example 42, (S)-8-(3-(2-chloro-3-fluorophenyl)-1H-pyrazolo[3,4-b]-pyrazin-6-yl)-2-oxa-8-azaspiro[4.5]-decan-4-amine], for which the pIC50 in assay [2] (Homo sapiens, KYSE-520, 2 h) is 7.20.

Consider `N[C@@H]1CCCC12CCN(c1cnc3c(-c4ccc(Cl)c(Cl)c4)n[nH]c3n1)CC2` [Example 46, (R)-8-(3-(3,4-dichloro-phenyl)-1H-pyrazolo[3,4-b]-pyrazin-6-yl)-8-aza-spiro[4.5]decan-1-amine], for which the pIC50 in assay [2] (Homo sapiens, KYSE-520, 2 h) is 6.18.

As to `Cc1c(Cl)cccc1-c1n[nH]c2nc(N3CCC4(CCC[C@H]4N)CC3)cnc12` [Example 51, (R)-8-(3-(3-chloro-2-methylphenyl)-1H-pyrazolo[3,4-b]pyrazin-6-yl)-8-azaspiro[4.5]decan-1-amine], the pIC50 in assay [1] (setting [4]) was 6.82.

Turning to `COc1cc(Cl)cc(-c2n[nH]c3nc(N4CCC5(CCC[C@H]5N)CC4)cnc23)c1` [Example 52, (R)-8-(3-(3-chloro-5-methoxyphenyl)-1H-pyrazolo[3,4-b]pyrazin-6-yl)-8-azaspiro[4.5]decan-1-amine], in assay [1] (setting [4]), the pIC50 is 6.50.

Regarding `N[C@@H]1CCCC12CCN(c1cnc3c(-c4cccnc4Cl)n[nH]c3n1)CC2` [Example 53, (R)-8-(3-(2-chloro-pyridin-3-yl)-1H-pyrazolo[3,4-b]-pyrazin-6-yl)-8-aza-spiro[4.5]decan-1-amine], the pIC50 in assay [2] (Homo sapiens, KYSE-520, 2 h) is 6.65.

For the compound `NC1(CO)CCN(c2cnc3c(-c4cccnc4Cl)n[nH]c3n2)CC1` [Example 59, (4-amino-1-(3-(2-chloropyridin-3-yl)-1H-pyrazolo[3,4-b]pyrazin-6-yl)-piperidin-4-yl)-methanol], in assay [2] (Homo sapiens, KYSE-520, 2 h), the pIC50 was 5.98.

Turning to `NC1(CO)CCN(c2cnc3c(-c4cccc(F)c4Cl)n[nH]c3n2)CC1` [Example 62, (4-amino-1-(3-(2-chloro-3-fluoro-phenyl)-1H-pyrazolo[3,4-b]-pyrazin-6-yl)-piperidin-4-yl)-methanol], the pIC50 in assay [2] (Homo sapiens, KYSE-520, 2 h) is 6.51.

As to `NCC1(O)CCN(c2cnc3c(-c4c(F)cccc4Cl)n[nH]c3n2)CC1` [Example 63, 4-(aminomethyl)-1-(3-(2-chloro-6-fluorophenyl)-1H-pyrazolo [3,4-b]-pyrazin-6-yl)-piperidin-4-ol], in assay [2] (Homo sapiens, KYSE-520, 2 h), the pIC50 is 6.16.

Turning to `CNc1nccc(-c2n[nH]c3nc(N4CCC(C)(N)CC4)cnc23)c1Cl` [Example 112, 4-(6-(4-Amino-4-methylpiperidin-1-yl)-1H-pyrazolo[3,4-b]pyrazin-3-yl)-3-chloro-N-methylpyridin-2-amine], in assay [2] (Homo sapiens, KYSE-520, 2 h), the pIC50 was 7.24.

In the case of `Nc1nccc(-c2n[nH]c3nc(N4CCC5(CCC5N)CC4)cnc23)c1Cl` (centres unmarked) [Example 115, 7-(3-(2-Amino-3-chloropyridin-4-yl)-1H-pyrazolo[3,4-b]pyrazin-6-yl)-7-azaspiro[3.5]nonan-1-amine], in assay [2] (Homo sapiens, KYSE-520, 2 h), the pIC50 was 6.37.

`Cc1c(-c2n[nH]c3nc(N4CCC5(CCC[C@H]5N)CC4)cnc23)ccnc1N` [Example 122, (R)-8-(3-(2-amino-3-methylpyridin-4-yl)-1H-pyrazolo[3,4-b]pyrazin-6-yl)-8-azaspiro[4.5]decan-1-amine]: in assay [1] (setting [4]), the pIC50 is 6.69.

On to `Cc1c(-c2n[nH]c3nc(N4CCC(C)(N)CC4)cnc23)ccnc1N` [Example 123, 4-(6-(4-amino-4-methylpiperidin-1-yl)-1H-pyrazolo[3,4-b]pyrazin-3-yl)-3-methylpyridin-2-amine], for which the pIC50 in assay [1] (setting [4]) is 6.17.

For the compound `Cc1c(-c2n[nH]c3nc(N4CCC(C)(CN)CC4)cnc23)ccnc1N` [Example 124, 4-(6-(4-(Aminomethyl)-4-methylpiperidin-1-yl)-1H-pyrazolo[3,4-b]pyrazin-3-yl)-3-methylpyridin-2-amine], the pIC50 in assay [1] (setting [4]) was 6.42.

Take `Nc1nccc(-c2n[nH]c3nc(N4CCC5(CC4)C[C@H](O)C[C@H]5N)cnc23)c1Cl` [Example 126, (2S,4R)-4-Amino-8-(3-(2-amino-3-chloropyridin-4-yl)-1H-pyrazolo[3,4-b]pyrazin-6-yl)-8-azaspiro[4.5]decan-2-ol]: the pIC50 in assay [1] (setting [4]) is 7.12.

Source of the values: patent US10280171B2, “Heterocyclic inhibitors of PTPN11” (priority 2016, dated 2019).
